Measurements taken from patent US9353107B2 (Aurigene Discovery Technologies Limited, priority 2012, dated 2016).
Counter-ions that a name gives are not always drawn.

Biological target: T1, recombinant human ALK enzyme (ALK WT) (Homo sapiens, UniProt Q9UM73)
T1 construct: purchased Carna Biosciences 08-518
Assay: ALK WT cell free enzymatic assay (TR-FRET)
Assay type: biochemical
Details: 1 μM ATP; for IC50: 10 point dose response; for inhibition at 0.1 µM: compound at 100 nM; for inhibition at 0.1 µM / inhibition at 1 µM: 30 min pre-incubation; for inhibition at 1 µM: compound at 1 μM
Procedure, shortened: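 Recombinant human ALK with 40 nM Ultra Light Poly GT, 1 μM ATP and Eu anti-phosphotyrosine antibody, 1% DMSO, pH 7.1 HEPES; 30 min enzyme-compound pre-incubation, then 30 min reaction. TR-FRET 665/615 ratio; percent inhibition at 100 nM and 1 μM, IC50 from 10-point sigmoidal fit.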

T1 sequence (Q9UM73 1058-1620 limits assumed): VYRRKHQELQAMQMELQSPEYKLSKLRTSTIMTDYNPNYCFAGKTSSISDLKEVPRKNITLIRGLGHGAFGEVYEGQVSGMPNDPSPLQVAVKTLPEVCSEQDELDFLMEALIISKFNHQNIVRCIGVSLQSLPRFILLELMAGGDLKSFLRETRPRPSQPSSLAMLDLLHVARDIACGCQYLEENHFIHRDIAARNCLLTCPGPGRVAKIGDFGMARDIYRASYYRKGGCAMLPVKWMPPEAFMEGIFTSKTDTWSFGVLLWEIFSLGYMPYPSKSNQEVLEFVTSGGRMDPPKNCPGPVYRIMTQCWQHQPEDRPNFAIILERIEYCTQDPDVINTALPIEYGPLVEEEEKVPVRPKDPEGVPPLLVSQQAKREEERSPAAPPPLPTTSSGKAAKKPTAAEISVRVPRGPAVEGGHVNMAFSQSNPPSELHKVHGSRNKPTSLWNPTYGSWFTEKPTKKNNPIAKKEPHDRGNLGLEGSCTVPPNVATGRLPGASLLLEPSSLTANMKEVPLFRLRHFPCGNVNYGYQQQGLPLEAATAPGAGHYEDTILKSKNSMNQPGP

Compound | IC50 | inhibition at 0.1 µM | inhibition at 1 µM
COc1nc(N2CCN(C[C@H](C)O)CC2)ccc1-c1cnc2[nH]cc(-c3cnn(Cc4cccc(F)c4)c3)c2c1 [Example 144, (S)-1-(4-(5-(3-(1-(3-fluorobenzyl)-1H-pyrazol-4-yl)-1H-pyrrolo[2,3-b]pyridin-5-yl)-6-methoxypyridin-2-yl)piperazin-1-yl)propan-2-ol] | < 50 nM | 76% | 94%
Cc1nn(Cc2cc(F)cc(F)c2)c(C)c1-c1c[nH]c2ncc(-c3ccc(N4CCNCC4)cc3)cc12 [Example 43, 3-(1-(3,5-difluorobenzyl)-3,5-dimethyl-1H-pyrazol-4-yl)-5-(4-(piperazin-1-yl)phenyl)-1H-pyrrolo[2,3-b]pyridine hydrochloride] | < 50 nM | 92% | 99%
O=C(CC1CC1)N1CCN(c2ccc(-c3cnc4[nH]cc(-c5cnn(Cc6cccc(F)c6)c5)c4c3)cc2)CC1 [Example 124, 2-cyclopropyl-1-(4-(4-(3-(1-(3-fluorobenzyl)-1H-pyrazol-4-yl)-1H-pyrrolo[2,3-b]pyridin-5-yl)phenyl)piperazin-1-yl)ethanone] | > 250 nM | 17% | 86%
Cc1nn(Cc2cccc(F)c2)c(C)c1-c1c(C2CC2)[nH]c2ncc(-c3ccc(N4CCNCC4)cc3)cc12 [Example 63, 2-cyclopropyl-3-(1-(3-fluorobenzyl)-3,5-dimethyl-1H-pyrazol-4-yl)-5-(4-(piperazin-1-yl)phenyl)-1H-pyrrolo[2,3-b]pyridine] | – | 15% | 48%
C[C@H](O)CN1CCN(c2ccc(-c3cnc4[nH]cc(-c5cnn(Cc6cc(F)cc(F)c6)c5)c4c3)cn2)CC1 [Example 135, (S)-1-(4-(5-(3-(1-(3,5-difluorobenzyl)-1H-pyrazol-4-yl)-1H-pyrrolo[2,3-b]pyridin-5-yl)pyridin-2-yl)piperazin-1-yl)propan-2-ol] | < 50 nM | 95% | 100%
Cc1cccc(Cn2cc(-c3c[nH]c4ncc(-c5ccc(C6CCNCC6)cc5)cc34)cn2)c1 [Example 85, 3-(1-(3-methylbenzyl)-1H-pyrazol-4-yl)-5-(4-(piperidin-4-yl)phenyl)-1H-pyrrolo[2,3-b]pyridine] | < 50 nM | 95% | 100%
CS(=O)(=O)Nc1cccc(-c2cnc3[nH]cc(-c4cnn(Cc5ccc(F)cc5)c4)c3c2)c1 [Example 5, N-(3-(3-(1-(4-fluorobenzyl)-1H-pyrazol-4-yl)-1H-pyrrolo[2,3-b]pyridin-5-yl)phenyl) methanesulfonamide] | 50 to 250 nM | – | 69%
COc1cccc(Cn2nc(C)c(-c3c[nH]c4ncc(-c5ccc(N6CCNCC6)cc5)cc34)c2C)c1 [Example 46, 3-(1-(3-methoxybenzyl)-3,5-dimethyl-1H-pyrazol-4-yl)-5-(4-(piperazin-1-yl)phenyl)-1H-pyrrolo[2,3-b]pyridine hydrochloride] | < 50 nM | 80% | 98%
Cc1nn(Cc2cccc(F)c2)cc1-c1c[nH]c2ncc(-c3ccc(C4CCNCC4)c(F)c3)cc12 [Example 166, 5-(3-fluoro-4-(piperidin-4-yl)phenyl)-3-(1-(3-fluorobenzyl)-3-methyl-1H-pyrazol-4-yl)-1H-pyrrolo[2,3-b]pyridine] | < 50 nM | 90% | 98%
Nc1cc(-c2cnc3[nH]cc(-c4cnn(Cc5cccc(F)c5)c4)c3c2)ccc1N1CCNCC1 [Example 105, 5-(3-(1-(3-fluorobenzyl)-1H-pyrazol-4-yl)-1H-pyrrolo[2,3-b]pyridin-5-yl)-2-(piperazin-1-yl) aniline] | < 50 nM | 98% | 100%
C[C@H](O)CN1CCN(c2ccc(-c3cnc4[nH]cc(-c5cnn(Cc6cccc(F)c6)c5)c4c3)cc2)CC1 [Example 104, (S)-1-(4-(4-(3-(1-(3-fluorobenzyl)-1H-pyrazol-4-yl)-1H-pyrrolo[2,3-b]pyridin-5-yl)phenyl)piperazin-1-yl)propan-2-ol] | < 50 nM | 98% | 100%
C[C@H](O)CN1CCN(c2ccc(-c3cnc4[nH]cc(-c5cnn(Cc6cccc(Cl)c6)c5)c4c3)cn2)CC1 [Example 153, (S)-1-(4-(5-(3-(1-(3-chlorobenzyl)-1H-pyrazol-4-yl)-1H-pyrrolo[2,3-b]pyridin-5-yl)pyridin-2-yl)piperazin-1-yl)propan-2-ol] | < 50 nM | 93% | 100%
Cc1nn(Cc2cccc(F)c2)c(C)c1-c1c[nH]c2ncc(-c3ccc(C4CCNCC4)cc3)cc12 [Example 92, 3-(1-(3-fluorobenzyl)-3,5-dimethyl-1H-pyrazol-4-yl)-5-(4-(piperidin-4-yl)phenyl)-1H-pyrrolo[2,3-b]pyridine] | < 50 nM | 98% | 100%
Cc1nn(Cc2cccc(F)c2)c(C)c1-c1c[nH]c2ncc(-c3cccc(N4CCN(CCO)CC4)c3)cc12 [Example 186, 2-(4-(3-(3-(1-(3-fluorobenzyl)-3,5-dimethyl-1H-pyrazol-4-yl)-1H-pyrrolo[2,3-b]pyridin-5-yl)phenyl)piperazin-1-yl)ethanol] | < 50 nM | 83% | 96%
c1cc(Cn2cc(-c3c[nH]c4ncc(-c5ccc(C6CCNCC6)cc5)cc34)cn2)ccn1 [Example 171, 5-(4-(piperidin-4-yl)phenyl)-3-(1-(pyridin-4-ylmethyl)-1H-pyrazol-4-yl)-1H-pyrrolo[2,3-b]pyridine] | 50 to 250 nM | 41% | 88%
C[C@H](O)CN1CCC(c2ccc(-c3cnc4[nH]cc(-c5cnn(Cc6cccc(F)c6)c5)c4c3)cc2)CC1 [Example 82A, (S)-1-(4-(4-(3-(1-(3-fluorobenzyl)-1H-pyrazol-4-yl)-1H-pyrrolo[2,3-b]pyridin-5-yl)phenyl)piperidin-1-yl)propan-2-ol] | < 50 nM | 96% | 98%
CS(=O)(=O)Nc1cc(-c2cnc3[nH]cc(-c4cnn(Cc5cc(F)cc(F)c5)c4)c3c2)ccc1F [Example 79, N-(5-(3-(1-(3,5-difluorobenzyl)-1H-pyrazol-4-yl)-1H-pyrrolo[2,3-b]pyridin-5-yl)-2-fluorophenyl) methanesulfonamide] | < 50 nM | 101% | 102%
Cc1nn(Cc2cccc(F)c2)c(C)c1-c1c[nH]c2ncc(-c3ccc(N4CCN(C[C@H](C)O)CC4)cc3)cc12 [Example 123, (2S)-1-(4-(4-(3-(1-(3-fluorobenzyl)-3,5-dimethyl-1H-pyrazol-4-yl)-1H-pyrrolo[2,3-b]pyridin-5-yl)phenyl)piperazin-1-yl)propan-2-ol] | < 50 nM | 92% | 96%
COc1ccc(-c2cnc3[nH]cc(-c4cnn(CCc5ccccc5F)c4)c3c2)cc1NS(C)(=O)=O [Example 74, N-(5-(3-(1-(2-fluorophenethyl)-1H-pyrazol-4-yl)-1H-pyrrolo[2,3-b]pyridin-5-yl)-2-methoxyphenyl)methanesulfonamide] | 50 to 250 nM | 51% | 92%
Cc1nn(Cc2cccc(OC(F)(F)F)c2)c(C)c1-c1c[nH]c2ncc(-c3ccc(N4CCNCC4)cc3)cc12 [Example 52, 3-(3,5-dimethyl-1-(3-(trifluoromethoxy)benzyl)-1H-pyrazol-4-yl)-5-(4-(piperazin-1-yl)phenyl)-1H-pyrrolo[2,3-b]pyridine hydrochloride] | > 250 nM | 12% | 80%
Cc1nn(Cc2cccc(F)c2)c(C)c1-c1c[nH]c2ncc(-c3ccc(C4CCNCC4)c(F)c3)cc12 [Example 175, 5-(3-fluoro-4-(piperidin-4-yl)phenyl)-3-(1-(3-fluorobenzyl)-3,5-dimethyl-1H-pyrazol-4-yl)-1H-pyrrolo[2,3-b]pyridine] | < 50 nM | 96% | 100%
COc1cc(N2CCNCC2)ccc1-c1cnc2[nH]cc(-c3c(C)nn(Cc4cccc(F)c4)c3C)c2c1 [Example 61, 3-(1-(3-fluorobenzyl)-3,5-dimethyl-1H-pyrazol-4-yl)-5-(2-methoxy-4-(piperazin-1-yl)phenyl)-1H-pyrrolo[2,3-b]pyridine hydrochloride] | < 50 nM | 73% | 96%
C[C@H](O)CN1CCN(c2ccc(-c3cnc4[nH]cc(-c5cnn(CCc6ccccc6)c5)c4c3)cn2)CC1 [Example 143, (S)-1-(4-(5-(3-(1-phenethyl-1H-pyrazol-4-yl)-1H-pyrrolo[2,3-b]pyridin-5-yl)pyridin-2-yl)piperazin-1-yl)propan-2-ol] | – | 60% | 98%
CCOc1cccc(Cn2nc(C)c(-c3c[nH]c4ncc(-c5ccc(N6CCNCC6)cc5)cc34)c2C)c1 [Example 54, 3-(1-(3-ethoxybenzyl)-3,5-dimethyl-1H-pyrazol-4-yl)-5-(4-(piperazin-1-yl)phenyl)-1H-pyrrolo[2,3-b]pyridine hydrochloride] | – | 0% | 25%
COc1cc(-c2cnc3[nH]cc(-c4c(C)nn(Cc5cc(F)cc(F)c5)c4C)c3c2)cnc1N [Example 177, 5-(3-(1-(3,5-difluorobenzyl)-3,5-dimethyl-1H-pyrazol-4-yl)-1H-pyrrolo[2,3-b]pyridin-5-yl)-3-methoxypyridin-2-amine] | < 50 nM | 96% | 100%
Cc1nn(Cc2cccc(F)c2)c(C)c1-c1c[nH]c2nc(C3CC3)c(-c3ccc(N4CCNCC4)cc3)cc12 [Example 55, 6-cyclopropyl-3-(1-(3-fluorobenzyl)-3,5-dimethyl-1H-pyrazol-4-yl)-5-(4-(piperazin-1-yl)phenyl)-1H-pyrrolo[2,3-b]pyridine hydrochloride] | – | 2% | 43%
